For the assay, the target named is RABV NΔ23^0 (nucleoprotein aa 24-450) (Rabies virus, UniProt Q8JXF6). In kind it is binding, rabies virus (strain CVS-11).

Consider `CC[C@H](C)[C@H](NC(=O)[C@H](C)NC(=O)[C@H](CO)NC(=O)[C@@H]1CCCN1C(=O)[C@H](CC(N)=O)NC(=O)[C@@H](NC(=O)[C@H](Cc1ccccc1)NC(=O)[C@@H](NC(=O)[C@H](CCCCN)NC(=O)[C@H](CO)NC(=O)[C@H](CCSC)NC(=O)[C@H](CO)NC(=O)[C@H](C)NC(=O)CN)[C@@H](C)CC)C(C)C)C(=O)N[C@@H](CCCNC(=N)N)C(=O)N[C@@H](C)C(=O)NCC(=O)N[C@@H](CC(C)C)C(=O)N[C@@H](C)C(=O)N[C@@H](CC(=O)O)C(=O)N[C@@H](CC(C)C)C(=O)N[C@@H](CCC(=O)O)C(=O)N[C@@H](CCSC)C(=O)N[C@@H](C)C(=O)N[C@@H](CCC(=O)O)C(=O)N[C@@H](CCC(=O)O)C(=O)N[C@H](C(=O)N[C@H](C(=O)N[C@@H](CC(=O)O)C(=O)N[C@@H](CC(C)C)C(=O)N[C@H](C(=O)N[C@@H](CC(N)=O)C(=O)N[C@@H](CCCNC(=N)N)C(=O)N[C@@H](CC(N)=O)C(=O)N[C@H](C(=O)N[C@@H](CCC(=O)O)C(=O)N[C@@H](CC(=O)O)C(=O)N[C@@H](CC(N)=O)C(=O)N[C@@H](CCC(N)=O)C(=O)N[C@@H](C)C(=O)N[C@@H](Cc1c[nH]cn1)C(=O)N[C@@H](CC(C)C)C(=O)N[C@@H](CCC(N)=O)C(=O)N[C@@H](CSC1CC(=O)N(CCNC(=O)c2ccc3c(c2)C(=O)OC32c3ccc(O)cc3Oc3cc(O)ccc32)C1=O)C(=O)N[C@@H](CCC(=O)O)C(=O)O)[C@@H](C)CC)[C@@H](C)CC)C(C)C)[C@@H](C)O` (stereo partly shown) [P42-G41C*], for which the “half time of dissociation” value came to 256 min.

(Values after publication PMC9786881 (Viruses, 2022).)
